Source: patent US20230203043A1, “NOVEL IMIDAZOPYRAZINE DERIVATIVES” (Hoffmann-La Roche Inc., priority 2020, published 2023)
Where a name gives a salt, the structure may show the parent alone. Read-outs that look alike come from different tables or passages of the source.

System: Acinetobacter baumannii ATCC17961
Assay: Antimicrobial susceptibility testing: 90% growth inhibitory concentration (IC90) determination in Iso-Sensitest broth, OD600 growth
Format: cell-based
Experimental: Antimicrobial Susceptibility Testing:
90% Growth Inhibitory Concentration (IC90) Determination
The in vitro antimicrobial activity of the compounds was determined according to the following procedure:
The assay used a 10-points Iso-Sensitest broth medium to measure quantitatively the in vitro activity of the compounds against Acinetobacter baumannii ATCC17961 or ATCC17968.
Stock compounds in DMSO were serially twofold diluted (e.g. range from 50 to 0.097 μM final concentration) in 384 wells microtiter plates and inoculated with 49 μl the bacterial suspension in Iso-Sensitest medium to have a final cell concentration of ˜5×10^(5) CFU/ml in a final volume/well of 50 ul/well. Microtiter plates were incubated at 35±2° C.
Bacterial cell growth was determined with the measurement of optical density at λ=600 nm each 20 minutes over a time course of 16 h. Growth inhibition was calculated during the logarithmic growth of the bacterial cells with determination of the concentration inhibiting 50% (IC50) and 90% (IC90) of the growth.
Table 7 provides the 90% growth inhibitory concentrations (IC90) in micromoles per liter of the compounds of present invention obtained against the strain Acinetobacter baumannii ATCC17961 and/or ATCC17968.

[1] = Acinetobacter baumannii, ATCC17961, 16 h, strain ATCC 17961, OD600 growth over 16 h, read-out: A. baumannii ATCC 17961 IC90
[2] = Acinetobacter baumannii, ATCC17961, 16 h, read-out: A. baumannii ATCC 17961 IC90 (uM), strain ATCC 17961, OD600 growth over 16 h
[3] = strain ATCC 17961, OD600 growth over 16 h, read-out: A. baumannii ATCC 17961 IC90

Structure (SMILES)	IC90 [1] [µM]	IC90 [2] [µM]	also measured
NCCNC(=O)NCCNC(=O)c1ccc(Nc2nccn3c(-c4c[nH]nc4C(F)(F)F)cnc23)cc1Cl [Example 222, N-[2-(2-aminoethylcarbamoylamino)ethyl]-2-chloro-4-[[3-[3-(trifluoromethyl)-1H-pyrazol-4-yl]imidazo[1,2-a]pyrazin-8-yl]amino]benzamide formate]		1.09	
Cc1cc(Nc2nccn3c(-c4cn(CC#N)nc4C(F)(F)F)cnc23)ccc1C(=O)N[C@H](C)C(=O)N1CCNCC1 [Example 726, 4-[[3-[1-(cyanomethyl)-3-(trifluoromethyl)pyrazol-4-yl]imidazo[1,2-a]pyrazin-8-yl]amino]-2-methyl-N-[(1R)-1-methyl-2-oxo-2-piperazin-1-yl-ethyl]benzamide formate]		0.463	
C=CCn1cc(-c2cnc3c(Nc4ccc(C(=O)N[C@H](C)CNC(=O)OC(C)(C)C)c(CC)c4)nccn23)c(C(F)(F)F)n1 [Example 129, tert-butyl N-[(2R)-2-[[2-ethyl-4-[[3-[1-prop-2-enyl-3-(trifluoromethyl)pyrazol-4-yl]imidazo[1,2-a]pyrazin-8-yl]amino]benzoyl]amino]propyl] carbamate]			IC90 [3]: 1.06 µM
CCc1cc(Nc2nccn3c(-c4cn(CC(F)F)nc4C(F)(F)F)cnc23)ccc1C(=O)NC1C2CNCC21 (centres unmarked) [Example 562, N-(3-azabicyclo[3.1.0]hexan-6-yl)-4-((3-(1-(2,2-difluoroethyl)-3-(trifluoromethyl)-1H-pyrazol-4-yl)imidazo[1,2-a]pyrazin-8-yl)amino)-2-ethylbenzamide formate]		0.305	
C[C@@]1(O)CN[C@H](C(=O)N2CCN(C(=O)c3ccc(Nc4nccn5c(-c6c[nH]nc6C(F)(F)F)cnc45)cc3Cl)CC2)C1 [Example 443, [2-chloro-4-[[3-[3-(trifluoromethyl)-1H-pyrazol-4-yl]imidazo[1,2-a]pyrazin-8-yl]amino]phenyl]-[4-[(2S,4S)-4-hydroxy-4-methylpyrrolidine-2-carbonyl]piperazin-1-yl]methanone formate]		0.81	
CCc1cc(Nc2nccn3c(-c4cn(CC(F)F)nc4C(F)(F)F)cnc23)ccc1C(=O)NCCNC(=O)[C@@H]1CC[C@@H](N)C1 [Example 490, N-(2-((1R,3R)-3-aminocyclopentane-1-carboxamido)ethyl)-4-((3-(1-(2,2-difluoroethyl)-3-(trifluoromethyl)-1H-pyrazol-4-yl)imidazo[1,2-a]pyrazin-8-yl)amino)-2-ethylbenzamide formate]	0.196		
C#CCNCCCNC(=O)c1c(C)cc(Nc2nccn3c(-c4cn(CCF)nc4C(F)(F)F)cnc23)cc1F [Example 74, 2-fluoro-4-[[3-[1-(2-fluoroethyl)-3-(trifluoromethyl)pyrazol-4-yl]imidazo[1,2-a]pyrazin-8-yl]amino]-6-methyl-N-[3-(prop-2-ynylamino)propyl] benzamide]			IC90 [3]: 0.781 µM
NCCNC(=O)N1CCN(C(=O)c2ccc(Nc3nccn4c(-c5c[nH]nc5C(F)(F)F)cnc34)cc2Cl)CC1 [Example 392, N-(2-aminoethyl)-4-[2-chloro-4-[[3-[3-(trifluoromethyl)-1H-pyrazol-4-yl]imidazo[1,2-a]pyrazin-8-yl]amino]benzoyl]piperazine-1-carboxamide formate]		0.208	
N#CCn1cc(-c2cnc3c(Nc4ccc(C(=O)N5CC6(C5)CN(C(=O)[C@@H]5CCCN5)C6)c(Cl)c4)nccn23)c(C(F)(F)F)n1 [Example 636, (S)-2-(4-(8-((3-chloro-4-(6-prolyl-2,6-diazaspiro[3.3]heptane-2-carbonyl)phenyl)amino)imidazo[1,2-a]pyrazin-3-yl)-3-(trifluoromethyl)-1H-pyrazol-1-yl)acetonitrile]	0.222		
CCc1cc(Nc2nccn3c(-c4cn(CC(F)F)nc4C(F)(F)F)cnc23)ccc1C(=O)NCC(=O)N1CCNC(C)C1 (centres unmarked) [Example 545, 4-[[3-[1-(2,2-difluoroethyl)-3-(trifluoromethyl)pyrazol-4-yl]imidazo[1,2-a]pyrazin-8-yl]amino]-2-ethyl-N-[2-(3-methylpiperazin-1-yl)-2-oxo-ethyl]benzamide formate]		0.306	
C#CCNC(=O)c1c(C)cc(Nc2nccn3c(-c4cn(CC(F)F)nc4C(F)(F)F)cnc23)cc1F [Example 37, 4-[[3-[1-(2,2-difluoroethyl)-3-(trifluoromethyl)pyrazol-4-yl]imidazo[1,2-a]pyrazin-8-yl]amino]-2-fluoro-6-methyl-N-prop-2-ynylbenzamide]	0.239		
Cc1cc(Nc2nccn3c(-c4cn(CC#N)nc4C(F)(F)F)cnc23)ccc1C(=O)NCCOCCN [Example 262, N-[2-(2-aminoethoxy)ethyl]-4-[[3-[1-(cyanomethyl)-3-(trifluoromethyl)pyrazol-4-yl]imidazo[1,2-a]pyrazin-8-yl]amino]-2-methylbenzamide]	1.1		
CCc1cc(Nc2nccn3c(-c4cn(CC(F)F)nc4C(F)(F)F)cnc23)ccc1C(=O)NCC1CC1N (centres unmarked) [Example 641, N-((2-aminocyclopropyl)methyl)-4-((3-(1-(2,2-difluoroethyl)-3-(trifluoromethyl)-1H-pyrazol-4-yl)imidazo[1,2-a]pyrazin-8-yl)amino)-2-ethylbenzamide formate]		0.231	
N#CCn1cc(-c2cnc3c(Nc4ccc(C(=O)NCCNCC(=O)NCCN)c(Cl)c4)nccn23)c(C(F)(F)F)n1 [Example 815, N-(2-((2-((2-aminoethyl)amino)-2-oxoethyl)amino)ethyl)-2-chloro-4-((3-(1-(cyanomethyl)-3-(trifluoromethyl)-1H-pyrazol-4-yl)imidazo[1,2-α]pyrazin-8-yl)amino)benzamide formate]	0.18		

The next lines start with results.

IC90 [1] [µM]	Structure (SMILES)	IC90 [2] [µM]	also measured
2.49	CCc1cc(Nc2nccn3c(-c4cn(CC(N)=O)nc4C(F)(F)F)cnc23)ccc1C(=O)NC [Example 339, 4-[[3-[1-(2-amino-2-oxoethyl)-3-(trifluoromethyl)pyrazol-4-yl]imidazo[1,2-a]pyrazin-8-yl]amino]-2-ethyl-N-methylbenzamide]		
4.48	NCCNC(=O)CNC(=O)c1ccc(Nc2nccn3c(-c4c[nH]nc4C(F)(F)F)cnc23)cc1Cl [Example 166, N-[2-(2-aminoethylamino)-2-oxoethyl]-2-chloro-4-[[3-[3-(trifluoromethyl)-1H-pyrazol-4-yl]imidazo[1,2-a]pyrazin-8-yl]amino]benzamide]		
1.93	N[C@H]1CCN(C(=O)CNC(=O)c2ccc(Nc3nccn4c(-c5c[nH]nc5C(F)(F)F)cnc34)cc2Cl)C1 [Example 164, N-[2-[(3S)-3-aminopyrrolidin-1-yl]-2-oxoethyl]-2-chloro-4-[[3-[3-(trifluoromethyl)-1H-pyrazol-4-yl]imidazo[1,2-a]pyrazin-8-yl]amino]benzamide]		
1.11	O=C(NC1CCC(NC(=O)[C@H]2C[C@H](O)CN2)C1)c1ccc(Nc2nccn3c(-c4c[nH]nc4C(F)(F)F)cnc23)cc1Cl (mixture of isomers) [Example 373, rac-(2R,4S)-N-[3-[[2-chloro-4-[[3-[3-(trifluoromethyl)-1H-pyrazol-4-yl]imidazo[1,2-a]pyrazin-8-yl]amino]benzoyl]amino]cyclopentyl]-4-hydroxypyrrolidine-2-carboxamide]		
0.695	Cc1cc(Nc2nccn3c(-c4c[nH]nc4C(F)(F)F)cnc23)ccc1C(=O)N1CCN(C(=O)[C@H]2CCNC2)CC1 [Example 333, [2-methyl-4-[[3-[3-(trifluoromethyl)-1H-pyrazol-4-yl]imidazo[1,2-a]pyrazin-8-yl]amino]phenyl]-[4-[(3S)-pyrrolidine-3-carbonyl]piperazin-1-yl]methanone]		
0.209	CCc1cc(Nc2nccn3c(-c4cn(CC(F)F)nc4C(F)(F)F)cnc23)ccc1C(=O)N1CCC(CN)CC1 [Example 58, [4-(aminomethyl)piperidin-1-yl]-[4-[[3-[1-(2,2-difluoroethyl)-3-(trifluoromethyl)pyrazol-4-yl]imidazo[1,2-a]pyrazin-8-yl]amino]-2-ethylphenyl] methanone]		
0.349	O=C(c1ccc(Nc2nccn3c(-c4c[nH]nc4C(F)(F)F)cnc23)cc1Cl)N1CC2(C1)CN(C(=O)[C@@H]1CCCN1)C2 [Example 688, (S)-(2-chloro-4-((3-(3-(trifluoromethyl)-1H-pyrazol-4-yl)imidazo[1,2-a]pyrazin-8-yl)amino)phenyl)(6-prolyl-2,6-diazaspiro[3.3]heptan-2-yl)methanone]		
0.401	Cc1cc(Nc2nccn3c(-c4c[nH]nc4C(F)(F)F)cnc23)ccc1C(=O)N1CCN(C(=O)[C@H](C)N)CC1 [Example 331, (2S)-2-amino-1-[4-[2-methyl-4-[[3-[3-(trifluoromethyl)-1H-pyrazol-4-yl]imidazo[1,2-a]pyrazin-8-yl]amino]benzoyl]piperazin-1-yl]propan-1-one]		
1.32	C#CCn1cc(-c2cnc3c(Nc4ccc(C(=O)N5CCN(C(=O)[C@@H]6C[C@@H](O)CN6)CC5)c(CC)c4)nccn23)c(C(F)F)n1 [Example 785, (4-(4-((3-(3-(difluoromethyl)-1-(prop-2-yn-1-yl)-1H-pyrazol-4-yl)imidazo[1,2-a]pyrazin-8-yl)amino)-2-ethylbenzoyl)piperazin-1-yl)((2S,4R)-4-hydroxypyrrolidin-2-yl)methanone]		
